Here are results for 6 molecules from patent EP3628659A1, “SELENOESTER-CONTAINING COMPOUNDS FOR USE IN THE TREATMENT OF MICROBIAL INFECTIONS OR COLORECTAL CANCER” (Consejo Superior De Investigaciones Científicas, priority 2018, dated 2020).

In data set [1] the target is T1, ABCB1 efflux pump (Homo sapiens, UniProt P08183).
T1 construct: The colonic adenocarcinoma cells (the doxorubicin-sensitive Colo 205 and the multidrug resistant Colo 320); host or cells: Colo 320/MDR-LRP (multidrug resistant), with Colo 205 (ATCC-CCL-222) as the sensitive parental comparator
The data set can be described thus: Rhodamine 123 assay of inhibition of MDR efflux pumps (flow cytometry). In kind it is cell-based. The following applies: Quotient = 100 × FARcompound/FARverapamil, verapamil 20 µM, Colo 320 vs Colo 205; for Inhibition of efflux pumps At 2 µM concentration: compound 2 µM; for Inhibition of efflux pumps At 20 µM concentration: compound 20 µM. How it is done:
This method, described in Gajdács et al, 2017, Bioorg Med Chem Lett. 27(4): 797-802, is a fluorescence-based detection system which uses verapamil as reference inhibitor of the ABCB1 efflux pump. The colonic adenocarcinoma cells (the doxorubicin-sensitive Colo 205 and the multidrug resistant Colo 320) were adjusted to a density of 2×10^6/mL, re-suspended in serum-free RPMI 1640 medium and distributed in 0.5 mL aliquots into Eppendorf centrifuge tubes. Selenocompounds (1 and 10 µL from a stock solution of 1 mM, respectively) were added at different concentrations (2 µM and 20 µM final concentrations, respectively), and the samples were incubated for 10 min at room temperature. Next, 10 µL (5.2 µM final concentration) of rhodamine 123 was added to the samples and the cells were incubated for 20 minutes at 37°C, washed twice with phosphate buffered saline (PBS) and re-suspended in 1 mL PBS for analysis. The fluorescence intensity of the cell population was measured with a Partec CyFlow flow cytometer (Partec, Munster, Germany). Verapamil was used as a positive control at 20 µM final concentration in the rhodamine 123 exclusion experiments. The mean fluorescence intensity (%) was calculated for the treated multidrug resistance (MRD) Colo 320 and sensitive Colo 205 cell lines as compared to the untreated cells. The fluorescence activity ratio (FAR) was calculated based on the following equation which relates the measured fluorescence values: FAR = (MDRtreated /MDRcontrol)/(parentaltreated /parentalcontrol); Quotient = 100 × (FARcompound/FARverapamil) [formula]
On the technique in general: A flow cytometer gives signals particle by particle.

The test system of data set [2] is Colo 205 doxorubicin-sensitive. The data set can be described thus: Cytotoxicity assay (MTT) in Colo 205 cells. It is filed as cell-based, human. The following applies: for pIC50: Homo sapiens, COLO 205, 24 h, read-out: Colo 205 Cytotoxicity; for SI (MRC-5/Colo205): quotient of IC50 in MRC-5 and IC50 in Colo-205. As for the experimental part:
(§1) Cytotoxicity assays in human colonic adenocarcinoma cell lines Colo 205 doxorubicin-sensitive (ATCC-CCL-222) and Colo 320/MDR-LRP multidrug resistant overexpressing ABCB1 (MDR1)-LRP (ATCC-CCL-220.1) were performed following the procedure described by Gajdács et al, 2017, Bioorg Med Chem Lett. 27(4): 797-802. The effects of increasing concentrations of selenium compounds on cell growth were tested in 96-well flat-bottomed microtiter plates. The selectivity of the action towards cancer cells was assessed through the evaluation of cytotoxic activity in a non-tumoral cell line, the MRC-5 human embryonal lung fibroblast cell lines (ATCC CCL-171), as described in Gajdács et al, 2017, Bioorg Med Chem Lett. 27(4): 797-802.
(§2) All cell lines were purchased from LGC Promochem, Teddington, UK. The colonic cells were cultured in RPMI 1640 medium supplemented with 10% heat-inactivated fetal bovine serum, 2 mM L-glutamine, 1 mM Na-pyruvate and 100 mM Hepes. The cell lines were incubated at 37°C, in a 5% CO2, 95% air atmosphere. The semi-adherent human colon cancer cells were detached with Trypsin-Versene (EDTA) solution for 5 min at 37°C. Alternatively, MRC-5 cells was cultured in Eagle's Minimal Essential Medium (EMEM, containing 4.5 g/L glucose) supplemented with a non-essential amino acid mixture, a selection of vitamins and 10% heat-inactivated fetal bovine serum. The cell lines were incubated at 37°C, in a 5% CO2, 95% air atmosphere.
(§3) The compounds were diluted in a volume of 100 µL of medium. The two-fold serial dilutions of selenocompounds were prepared in 100 µL of RPMI 1640, horizontally. The semi-adherent colonic adenocarcinoma cells were treated with Trypsin-Versene (EDTA) solution. They were adjusted to a density of 2×10^4 cells in 100 µL of RPMI 1640 medium, and were added to each well, with the exception of the medium control wells. The final volume of the wells containing selenocompounds and cells was 200 µL.
(§4) The culture plates were incubated at 37°C for 24 h; at the end of the incubation period, 20 µL of MTT (thiazolyl blue tetrazolium bromide, Sigma) solution (from a stock solution of 5 mg/mL) were added to each well. After incubation at 37°C for 4 h, 100 µL of sodium dodecyl sulfate (SDS) (Sigma) solution (10% in 0.01 M HCI) were added to each well and the plates were further incubated at 37°C overnight. Cell growth was determined by measuring the optical density (OD) at 540/630 nm with Multiscan EX ELISA reader (Thermo Labsystems, Cheshire, WA, USA). Inhibition of the cell growth was determined according to the formula below: […] = 100−[(OD sample−OD medium control)/(OD cell control−OD medium control)] × 100 [formula]
(§5) Results are expressed in terms of IC50, defined as the inhibitory dose that reduces the growth of the cells exposed to the tested compounds by 50%. Regarding the selectivity, the selectivity indexes (SI) were calculate, being SI the quotient of the IC50 in non-tumoral cells (MRC-5) and the respective cancer cell (Colo-205 or Colo-320). Compound is considered moderately selective when SI < 6 and ≥ 3; and strongly selective when SI ≥ 6.

Data set [3] can be described thus: Cytotoxicity assay (MTT) in non-tumoral MRC-5 cells. It is filed as cell-based. The following applies: human, IC50 class, non-tumoral cell line; for IC50 at 24 h: MRC-5 embryonal lung fibroblast cells (non-tumoral). As for the experimental part: as §1, §2, §3, §4, §5
Data set [4] deals with Candida albicans. The data set can be described thus: Antifungal activity (optical density), Candida albicans. It is filed as cell-based. Conditions: IC50 class, tested at 50, 100, 150 and 200 µM, OD 570 nm, 37 °C. As for the experimental part:
The compounds were tested for their antifungal and nematicidal properties against the fungi Candida albicans and Saccharomyces cerevisiae, and against the nematode Steinernema feltiae.
Fungal cell densities were determined by measuring the optical density (OD) at 570 nm at 0 h (first measurement immediately after incubation), 4 h, and 24 h after incubation at 37 °C; and using a Universal Microplate Reader, EL800, Biotech Instruments, Inc. Highland Park, Winooski, VT, USA. Compounds were dissolved in 1% DMSO and were tested at final concentrations of 50, 100, 150, and 200 µM. Nutrient Sabouraud Dextrose (SD), and Yeast Peptone Dextrose (YPD) were used as media for C. albicans, and S. cerevisiae, respectively. Ketoconazole was used as the positive control for C. albicans and S. cerevisiae. The growth culture with medium for each organism was used as the negative control. The Solvent 1% DMSO stock was used as a solvent control. All experiments were carried out in triplicate and on three different occasions (n = 9).
For the three organisms considered (C. albicans, S. cerevisiae and S. feltiae), the inhibitory concentration 50% (IC50) is defined as the concentration that inhibits the viability of the respective organism to a 50% of the viability determined for the negative control.

Structures are written as SMILES. pIC50: −log10 of the molar value. Where only a bound is given, the exact number is not on record here.

T1 sequence (P08183 whole entry): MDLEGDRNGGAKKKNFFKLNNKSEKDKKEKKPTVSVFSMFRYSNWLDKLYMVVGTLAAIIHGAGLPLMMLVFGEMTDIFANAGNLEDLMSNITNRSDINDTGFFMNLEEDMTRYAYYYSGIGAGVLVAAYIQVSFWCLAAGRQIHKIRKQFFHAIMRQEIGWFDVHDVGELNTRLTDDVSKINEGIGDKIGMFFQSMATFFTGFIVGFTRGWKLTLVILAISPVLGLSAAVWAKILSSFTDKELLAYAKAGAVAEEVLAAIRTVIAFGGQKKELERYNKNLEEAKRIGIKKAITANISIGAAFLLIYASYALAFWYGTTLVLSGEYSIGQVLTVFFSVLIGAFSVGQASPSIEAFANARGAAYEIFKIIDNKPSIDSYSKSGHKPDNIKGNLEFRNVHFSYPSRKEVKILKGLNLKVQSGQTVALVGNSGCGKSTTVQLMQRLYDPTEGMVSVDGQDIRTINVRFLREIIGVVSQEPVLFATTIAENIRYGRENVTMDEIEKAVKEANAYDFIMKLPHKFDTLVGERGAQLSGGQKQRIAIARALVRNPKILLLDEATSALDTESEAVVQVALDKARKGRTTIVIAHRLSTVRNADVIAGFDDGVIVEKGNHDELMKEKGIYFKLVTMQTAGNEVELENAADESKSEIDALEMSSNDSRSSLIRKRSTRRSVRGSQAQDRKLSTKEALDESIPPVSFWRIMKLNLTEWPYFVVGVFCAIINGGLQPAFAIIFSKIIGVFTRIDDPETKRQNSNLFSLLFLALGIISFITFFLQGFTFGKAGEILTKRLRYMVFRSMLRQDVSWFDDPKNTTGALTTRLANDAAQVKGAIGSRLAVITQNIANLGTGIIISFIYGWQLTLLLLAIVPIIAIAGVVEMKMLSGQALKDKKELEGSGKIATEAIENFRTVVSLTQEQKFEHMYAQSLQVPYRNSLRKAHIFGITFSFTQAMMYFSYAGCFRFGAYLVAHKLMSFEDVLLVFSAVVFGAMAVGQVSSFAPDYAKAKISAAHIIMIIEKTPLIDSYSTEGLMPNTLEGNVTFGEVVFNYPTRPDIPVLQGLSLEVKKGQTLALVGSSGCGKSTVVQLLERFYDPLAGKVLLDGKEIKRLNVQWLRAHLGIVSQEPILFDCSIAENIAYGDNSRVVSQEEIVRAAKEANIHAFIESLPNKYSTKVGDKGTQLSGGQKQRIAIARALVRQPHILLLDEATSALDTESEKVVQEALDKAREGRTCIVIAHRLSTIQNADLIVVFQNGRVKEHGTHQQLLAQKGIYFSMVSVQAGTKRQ

For orientation: IC50 means the point on the concentration scale where inhibition reaches its midpoint. Read a high IC50 as a need for much substance. In the case of `N#CC[Se]C(=O)c1ccc(C(=O)[Se]CC#N)cc1` [Compound 18, Se,Se-bis-(cyanomethyl) benzene-1,4-bis-(carboselenoate)], in data set [1], the “Inhibition of efflux pumps At 2 µM concentration” value is “** (Potent inhibitors of MDR efflux pumps: 100% ≤ Quotient < 200% (from 1- to 2-fold more potent than reference verapamil))” and the “Inhibition of efflux pumps At 20 µM concentration” value was “** (Potent inhibitors of MDR efflux pumps: 100% ≤ Quotient < 200% (from 1- to 2-fold more potent than reference verapamil))”. Besides, in data set [2], the pIC50 is 5.00 to 6.00 and the “SI (MRC-5/Colo205)” value was “*** (Strongly selective compounds: SI ≥ 6)”. Also, in data set [3], the IC50 at 24 h was over 50 µM. The same molecule had a pIC50 in data set [4] of 4.00 to 4.30.

In the case of `CC(=O)C[Se]C(=O)c1cccc(C(=O)[Se]CC(C)=O)c1` [Compound 23, Se,Se-bis-(2-oxopropyl) benzene-1,3-bis-(carboselenoate)], in data set [1], the “Inhibition of efflux pumps At 2 µM concentration” value was “*** (Very potent inhibitors of MDR efflux pumps: Quotient ≥ 200% (≥ 2-fold more potent than reference verapamil))” and the “Inhibition of efflux pumps At 20 µM concentration” value is on record as “*** (Very potent inhibitors of MDR efflux pumps: Quotient ≥ 200% (≥ 2-fold more potent than reference verapamil))”. Moreover, in data set [2], the pIC50 was over 6.00 and the “SI (MRC-5/Colo205)” value is on record as “* (Slightly selective compounds: 1 ≤ SI < 3)”. For the same molecule, the IC50 at 24 h in data set [3] is 1 to 10 µM. Moreover, the pIC50 in data set [4] was 4.30 to 5.00.

As to `CC(=O)C[Se]C(=O)c1ccc(C(=O)[Se]CC(C)=O)cc1` [Compound 22, Se,Se-bis-(2-oxopropyl) benzene-1,4-bis-(carboselenoate)], in data set [1], the “Inhibition of efflux pumps At 2 µM concentration” value is listed as “*** (Very potent inhibitors of MDR efflux pumps: Quotient ≥ 200% (≥ 2-fold more potent than reference verapamil))” and the “Inhibition of efflux pumps At 20 µM concentration” value is reported as “*** (Very potent inhibitors of MDR efflux pumps: Quotient ≥ 200% (≥ 2-fold more potent than reference verapamil))”. In data set [2], the pIC50 was over 6.00 and the “SI (MRC-5/Colo205)” value is reported as “* (Slightly selective compounds: 1 ≤ SI < 3)”. Besides, the IC50 at 24 h in data set [3] is under 1 µM. The molecule further had a pIC50 in data set [4] of 4.30 to 5.00.

In the case of `CC(=O)C[Se]C(=O)c1cc(C(=O)[Se]CC(C)=O)cc(C(=O)[Se]CC(C)=O)c1` [Compound 24, Se,Se,Se-tris-(2-oxopropyl) benzene-1,3,5-tris-(carboxyselenoate)], in data set [1], the “Inhibition of efflux pumps At 2 µM concentration” value was “*** (Very potent inhibitors of MDR efflux pumps: Quotient ≥ 200% (≥ 2-fold more potent than reference verapamil))” and the “Inhibition of efflux pumps At 20 µM concentration” value was “*** (Very potent inhibitors of MDR efflux pumps: Quotient ≥ 200% (≥ 2-fold more potent than reference verapamil))”. In data set [2], the pIC50 was over 6.00 and the “SI (MRC-5/Colo205)” value was “* (Slightly selective compounds: 1 ≤ SI < 3)”. The molecule further showed an IC50 at 24 h in data set [3] of under 1 µM. Besides, in data set [4], the pIC50 was under 4.00.

The term CC50 denotes the concentration giving 50% cytotoxicity. A higher CC50 goes with better tolerance by the cells. With `N#CC[Se]C(=O)c1cccc(C(=O)[Se]CC#N)c1` [Compound 19, Se,Se-bis-(cyanomethyl)benzene-1,3-bis-(carboselenoate)], in data set [1], the “Inhibition of efflux pumps At 2 µM concentration” value is recorded as “** (Potent inhibitors of MDR efflux pumps: 100% ≤ Quotient < 200% (from 1- to 2-fold more potent than reference verapamil))” and the “Inhibition of efflux pumps At 20 µM concentration” value is “** (Potent inhibitors of MDR efflux pumps: 100% ≤ Quotient < 200% (from 1- to 2-fold more potent than reference verapamil))”. In data set [2], the pIC50 is 5.00 to 6.00 and the “SI (MRC-5/Colo205)” value is recorded as “*** (Strongly selective compounds: SI ≥ 6)”. The same molecule displayed a CC50 in data set [3] (mrc-5 cells) of over 50 µM. Also, in data set [4], the pIC50 was 4.30 to 5.00.

As for `N#CC[Se]C(=O)c1cc(C(=O)[Se]CC#N)cc(C(=O)[Se]CC#N)c1` [Compound 20, Se,Se,Se-tris-(cyanomethyl) benzene-1,3,5-tris-(carboxyselenoate)], in data set [1], the “Inhibition of efflux pumps At 2 µM concentration” value is recorded as “** (Potent inhibitors of MDR efflux pumps: 100% ≤ Quotient < 200% (from 1- to 2-fold more potent than reference verapamil))” and the “Inhibition of efflux pumps At 20 µM concentration” value was “** (Potent inhibitors of MDR efflux pumps: 100% ≤ Quotient < 200% (from 1- to 2-fold more potent than reference verapamil))”. In data set [2], the pIC50 is over 6.00 and the “SI (MRC-5/Colo205)” value is “*** (Strongly selective compounds: SI ≥ 6)”. Further, the IC50 at 24 h in data set [3] was over 50 µM. In data set [4], this molecule gave a pIC50 of 4.30 to 5.00.
